Active and inactive are the calls of the source. The calls are words filed in the database; no cut-off is given here.

Growth hormone secretagogue receptor type 1 (Rattus norvegicus), sequence (O08725 whole entry): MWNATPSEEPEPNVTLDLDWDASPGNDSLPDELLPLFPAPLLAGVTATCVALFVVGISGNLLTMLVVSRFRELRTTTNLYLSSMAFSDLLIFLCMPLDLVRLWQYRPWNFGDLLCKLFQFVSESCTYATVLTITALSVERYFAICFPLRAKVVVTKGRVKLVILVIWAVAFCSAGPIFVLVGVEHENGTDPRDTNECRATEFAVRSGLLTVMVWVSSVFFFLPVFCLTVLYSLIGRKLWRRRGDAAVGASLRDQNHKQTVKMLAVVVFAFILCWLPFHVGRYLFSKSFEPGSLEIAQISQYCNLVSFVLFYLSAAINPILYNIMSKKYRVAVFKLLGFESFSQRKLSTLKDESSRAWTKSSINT

System in one series: not listed separately
In words: pKa value was determined. It counts as physicochemical.
Details: not given
Broadly, the pKa is the pH at which an ionisable group is half protonated. For the compound `C[C@@H](O)CNC(C)(C)CC(=O)N[C@@H]1CCc2ccccc2N(Cc2ccc(-c3ccccc3-c3nnn[nH]3)cc2)C1=O` [L-692585], the pKa was found to be 9.1.

The compound `CC(C)(N)CC(=O)N[C@@H]1CCc2ccccc2N(Cc2ccc(-c3ccccc3-c3nnn[nH]3)cc2)C1=O` had a pKa of 9.3.

The compound `CC(C)(N)C(=O)N[C@@H]1CCc2ccccc2N(Cc2ccc(-c3ccccc3-c3nn[nH]n3)cc2)C1=O` had a pKa of 7.9.

A further series has as its target Growth hormone secretagogue receptor type 1 (Rattus norvegicus) (UniProt O08725). Put plainly: In vitro effective dose was measured for the growth hormone release in rat pituitary cells. In kind it is functional, cell-based. To be noted: Pituitary gland cell.
As for `C[C@@H](O)CNC(C)(C)CC(=O)N[C@@H]1CCc2ccccc2N(Cc2ccc(-c3ccccc3-c3nn[nH]n3)cc2)C1=O`, the ED50 came to 3 µM.

`CC(C)(CN)C(=O)N[C@@H]1CCc2ccccc2N(Cc2ccc(-c3ccccc3-c3nn[nH]n3)cc2)C1=O` displayed an ED50 of 3 µM.

As for `CC(C)(CC(=O)N[C@@H]1CCc2ccccc2N(Cc2ccc(-c3ccccc3-c3nn[nH]n3)cc2)C1=O)NCCO`, the ED50 was determined as 30 µM.

Regarding `CC(C)(CC(=O)N[C@@H]1CCc2ccccc2N(Cc2ccc(-c3ccccc3-c3nn[nH]n3)cc2)C1=O)NCc1ccccc1`, the ED50 amounted to 65 µM.

`CC(C)(CC(=O)N[C@@H]1CCc2ccccc2N(Cc2ccc(-c3ccccc3-c3nn[nH]n3)cc2)C1=O)NCCN`: the ED50 is 230 µM.

Turning to `CC(C)(N)CC(=O)N[C@@H]1CCc2ccccc2N(Cc2ccc(-c3ccccc3-c3nn[nH]n3)cc2)C1=O`, the ED50 came to 0.06 µM.

Take `NCC(=O)N[C@@H]1CCc2ccccc2N(Cc2ccc(-c3ccccc3-c3nn[nH]n3)cc2)C1=O`: the ED50 worked out at 9 µM.

`CC[C@@H](N)C(=O)N[C@@H]1CCc2ccccc2N(Cc2ccc(-c3ccccc3-c3nn[nH]n3)cc2)C1=O` came in with an ED50 of 0.3 µM.

As to `C[C@H](O)CNC(C)(C)CC(=O)N[C@@H]1CCc2ccccc2N(Cc2ccc(-c3ccccc3-c3nn[nH]n3)cc2)C1=O`, the ED50 was determined as 7 µM.

In turn, `CC(C)(N)CCC(=O)N[C@@H]1CCc2ccccc2N(Cc2ccc(-c3ccccc3-c3nn[nH]n3)cc2)C1=O` came in with an ED50 of 3 µM.

With `CCCNC(C)(C)CC(=O)N[C@@H]1CCc2ccccc2N(Cc2ccc(-c3ccccc3-c3nn[nH]n3)cc2)C1=O`, the ED50 turned out to be 50 µM.

With `C[C@@H](N)C(=O)N[C@@H]1CCc2ccccc2N(Cc2ccc(-c3ccccc3-c3nn[nH]n3)cc2)C1=O` (stereo in doubt; 11), the ED50 turned out to be 1.4 µM.

Consider `NCCC(=O)N[C@@H]1CCc2ccccc2N(Cc2ccc(-c3ccccc3-c3nn[nH]n3)cc2)C1=O`, for which the ED50 came to 2 µM.

With `N[C@@H]1CCc2ccccc2N(Cc2ccc(-c3ccccc3-c3nn[nH]n3)cc2)C1=O`, the ED50 stood at 9 µM.

`CC(C)(N)C(=O)N[C@@H]1CCc2ccccc2N(Cc2ccc(-c3ccccc3-c3nn[nH]n3)cc2)C1=O`: the ED50 came to 0.03 µM.

As to `N[C@H](Cc1ccccc1)C(=O)N[C@@H]1CCc2ccccc2N(Cc2ccc(-c3ccccc3-c3nn[nH]n3)cc2)C1=O`, the ED50 turned out to be 2 µM.

For the compound `C[C@@H](N)C(=O)N[C@@H]1CCc2ccccc2N(Cc2ccc(-c3ccccc3-c3nn[nH]n3)cc2)C1=O` (stereo in doubt; 12), the ED50 turned out to be 0.1 µM.

The compound `CC(C)CNC(C)(C)CC(=O)N[C@@H]1CCc2ccccc2N(Cc2ccc(-c3ccccc3-c3nn[nH]n3)cc2)C1=O` gave an ED50 of 85 µM.

The species named for another series is Rattus norvegicus. Put plainly: In vitro effective dose was measured for the growth hormone release in rat pituitary cells; Inactive at 20 ug/mL. In kind it is functional, cell-based. To be noted: Pituitary gland cell.
For the compound `CC(=O)N[C@@H]1CCc2ccccc2N(Cc2ccc(-c3ccccc3-c3nn[nH]n3)cc2)C1=O`, the ED50 result was “inactive”.

As for `CC(=O)NC(C)(C)CC(=O)N[C@@H]1CCc2ccccc2N(Cc2ccc(-c3ccccc3-c3nn[nH]n3)cc2)C1=O`, the ED50 entry is “inactive”.

As to `CC(C)(CC(=O)N[C@@H]1CCc2ccccc2N(Cc2ccc(-c3ccccc3-c3nn[nH]n3)cc2)C1=O)NC(=O)OC(C)(C)C`, the ED50 entry is “inactive”.

With `CC(C)(C)CC(=O)N[C@@H]1CCc2ccccc2N(Cc2ccc(-c3ccccc3-c3nn[nH]n3)cc2)C1=O`, the ED50 result was “inactive”.

Values taken from ChEMBL document CHEMBL1127282, “Structure-activity relationships in the amino acid sidechain of L-692,429” (Bioorg Med Chem Lett, 1994).
